In US12552800B2, “Compounds for diagnosis” (AC IMMUNE SA, priority 2020, dated 2026):

Experiments:
[1] = target: T1, PD brain-derived a-syn aggregates (Homo sapiens, UniProt P37840); assay: Micro-radiobinding competition assay against [^3H]-a-syn-Ref; format: binding; settings: over [^3H]-a-syn-Ref at 20 nM; example compound at 1 μM
T1 construct: from tissue; host or cells: human PD donor brain, sarkosyl-insoluble 100,000 x g pellet
Procedure: The procedure was adapted from the protocol described in Spillantini et al., 1998. Frozen tissue blocks from PD donors were thawed on ice and homogenized using a glass dounce homogenizer. The homogenate was then centrifuged at 11,000×g (12,700 RPM) in an ultracentrifuge (Beckman, XL100K) for 20 minutes at 4° C. using a pre-cooled 70.1 rotor (Beckman, 342184). Pellets were resuspended in extraction buffer [10 mM Tris-HCl pH 7.4, 10% sucrose, […], 1% protease inhibitor (Calbiochem 539131), 1 mM EGTA, 1% phosphatase inhibitor (Sigma P5726 and P0044)] and centrifuged at 15,000×g (14,800 RPM, a 70.1 Ti rotor) for 20 minutes at 4° C. Pellets were discarded and sarkosyl (20% stock solution, Sigma L7414) was added to the supernatants to a final concentration of 1% at room temperature for one hour. This solution was then centrifuged at 100,000×g (38,000 RPM, 70.1 Ti rotor) for one hour at 4° C. Pellets containing enriched a-syn aggregates were resuspended in PBS and stored at −80° C. until use.
PD brain-derived a-syn aggregates were spotted onto microarray slides. The slides were incubated with the tritiated reference ligand, [^3H]-a-syn-Ref (as described in WO2017/153601) at 20 nM and the example compounds of this invention (non-radiolabelled) either at 1 μM or at increasing concentrations in the range of 50 pM to 2 μM. After incubation, slides were washed and exposed to a phosphor storage screen (GE healthcare, BAS-IP TR 2025). Following exposure, phosphor storage screens were scanned with a laser imaging system (Typhoon FLA 7000) to readout the signal from the radiobinding experiments described above. Quantification of the signal was performed using the ImageJ software package. […] All measurements were performed with at least two technical replicates.
Example compounds were assessed for their potency to compete with the binding of [3H] radiolabelled reference ligand to PD patient brain-derived a-syn aggregates. Results of the micro-radiobinding competition assay for the example compounds tested are shown in Table 5 as: % competition at 1 μM and Ki value. All measurements were performed on the same PD brain-derived a-syn aggregates.

[2] = target: T1, PD brain-derived a-syn aggregates; assay: Micro-radiobinding competition assay against Example-1 [^3H-1] (Table 8); format: binding; settings: human PD brain-derived a-syn aggregates; for Competition at 100 nM (%): 100 nM non-radiolabelled example compound vs Example-1 [^3H-1] ligand; for Competition at 1 μM (%): 1 μM non-radiolabelled example compound vs Example-1 [^3H-1] ligand
Outline: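 Human PD brain-derived α-syn aggregates on microarray slides were co-incubated with 6 nM or 20 nM tritiated radioligand and unlabelled compound at 1 μM and 100 nM, some over 0.05 nM–2 μM. Bound signal read by real-time autoradiography; values are % competition, at least two technical replicates, mean of independent experiments.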

[3] = target: T1, PD brain-derived a-syn aggregates; assay: as above; format: binding; settings: competition over Example-1 [^3H-1]
[4] = PK study in a healthy monkey by PET; format: in vivo, Non-Human Primate (NHP); settings: iv, 6.5 mCi
Procedure: Non-Human Primate (NHP) was injected intravenously (iv) with the ^18F-labelled Example-1 [^18F-1] (6.5 mCi) using 1 mL ethanol and 14 mL ascorbate/saline (ascorbate solution was prepared at a concentration of 9.3 mg/mL). Monkey PET scans were performed using a Siemens Focus 220. PET acquisition started immediately before the radioactive dose was injected. Images were generated as dynamic scans for 120 minutes with head focused.

Structure (SMILES) | Competition at 1 μM (%) [1] [%] | Competition at 100 nM (%) [2] [%] | Competition at 1 μM (%) [2] [%] | Ki [3] [µM] | SUVmax whole brain [4] | time of uptake post injection ([4]; whole brain) [min] | washout, peak to half peak ([4]; whole brain) [min]
O=C1c2cn(-c3ccc(N4CC[C@H](F)C4)nc3)nc2CN1c1cccnc1 [Example 3] |  | 45 | 89 | 0.057 |  |  | 
O=C1c2cn(-c3ccc(N4CC[C@H](F)C4)nc3)nc2CN1c1ccccn1 [Example 6] |  | 87 | 98 | 0.019 |  |  | 
O=C1c2cn(-c3ccc(N4CC[C@H](F)C4)nc3)nc2CN1c1ncccn1 [Example 18] |  | 23 | 86 | 0.111 |  |  | 
O=C1c2cn(-c3ccc(N4CC[C@H](F)C4)nc3)nc2CN1c1ccnnc1 [Example 19] |  | 23 | 83 | 0.074 |  |  | 
O=C1c2cn(-c3ccc(N4CC[C@@H](F)C4)nc3)nc2CN1c1ccnnc1 [Example 25] |  | 64 | 94 | 0.068 |  |  | 
O=C1c2cn(-c3ccc(N4CC(F)C4)nc3)nc2CN1c1cccnc1 [Example 48] |  | 42 | 77 | 0.132 |  |  | 
Cc1ccnc(N2Cc3nn(-c4ccc(N5CC[C@@H](F)C5)nc4)cc3C2=O)c1 [Example 80] |  | 51 | 83 | 0.056 |  |  | 
O=C1c2cn(-c3ccc(N4CC[C@@H](F)C4)nc3)nc2CN1c1ccc(O)nc1 [Example 81] |  | 56 | 90 | 0.118 |  |  | 
COc1cncc(N2Cc3nn(-c4ccc(N5CC[C@@H](F)C5)nc4)cc3C2=O)c1 [Example 97] |  | 33 | 84 | 0.084 |  |  | 
COc1cncc(N2Cc3nn(-c4ccc(N5CC[C@H](F)C5)nc4)cc3C2=O)c1 [Example 98] |  | 38 | 76 | 0.089 |  |  | 
O=C1c2cn(-c3ccc(N4CCCC4)nc3)nc2CN1c1cncc(F)c1 [Example 99] |  | 56 | 92 | 0.082 |  |  | 
O=C1c2cn(-c3ccc(N4CC[C@H](F)C4)nc3)nc2CN1c1ccc(O)nc1 [Example 101] |  |  | 75 | 0.311 |  |  | 
Cc1cncc(N2Cc3nn(-c4ccc(N5CC[C@@H](F)C5)nc4)cc3C2=O)c1 [Example 105] |  | 57 | 83 | 0.149 |  |  | 
Cc1cncc(N2Cc3nn(-c4ccc(N5CC[C@H](F)C5)nc4)cc3C2=O)c1 [Example 108] |  | 54 | 81 | 0.182 |  |  | 
O=C1c2cn(-c3ccc(N4CC[C@H](F)C4)nc3)nc2CN1c1cccnn1 [Example 151] |  | 51 | 81 | 0.226 |  |  | 
O=C1c2cn(-c3ccc(N4CC[C@H](F)C4)nc3)nc2CN1c1cccc(O)n1 [Example 163] |  | 49 | 99 | 0.067 |  |  | 
O=C1c2cn(-c3ccc(N4CC[C@@H](F)C4)nc3)nc2CN1c1ncccc1O [Example 167] |  | 68 | 93 | 0.056 |  |  | 
O=C1c2cn(-c3ccc(N4CC[C@H](F)C4)nc3)nc2CN1c1cn[nH]c1 [Example 181] |  | 67 | 75 | 0.136 |  |  | 
O=C1c2cn(-c3ccc(N4CC[C@@H]([18F])C4)nc3)nc2CN1c1cccnc1 [Example-1 [^18F-1]] |  |  |  |  | 2.0 | 3.5 | 14

Other lines, results leading:

Competition at 1 μM (%) [1] [%] | Competition at 100 nM (%) [2] [%] | Competition at 1 μM (%) [2] [%] | Ki [3] [µM] | SUVmax whole brain [4] | time of uptake post injection ([4]; whole brain) [min] | washout, peak to half peak ([4]; whole brain) [min] | Structure (SMILES)
68 | 72 | 98 | 0.007 |  |  |  | O=C1c2cn(-c3ccc(N4CC[C@@H](F)C4)nc3)nc2CN1c1ccncc1 [Example 2]
 | 68 | 98 | 0.026 |  |  |  | O=C1c2cn(-c3ccc(N4CC[C@@H](F)C4)nc3)nc2CN1c1ccccn1 [Example 5]
 | 87 | 101 | 0.005 |  |  |  | O=C1c2cn(-c3ccc(N4CC[C@@H](F)C4)nc3)nc2CN1c1cnccn1 [Example 7]
 | 68 | 100 | 0.021 |  |  |  | Cl.O=C1c2cn(-c3ccc(N4CC[C@H](F)C4)nc3)nc2CN1c1cnccn1 [Example 17]
 | 87 | 108 | 0.02 |  |  |  | Cn1cc(N2Cc3nn(-c4ccc(N5CC[C@@H](F)C5)nc4)cc3C2=O)cn1 [Example 26]
 | 87 | 99 | 0.013 |  |  |  | COc1ccc(N2Cc3nn(-c4ccc(N5CC[C@@H](F)C5)nc4)cc3C2=O)cc1 [Example 27]
 | 50 | 77 | 0.049 |  |  |  | O=C1c2cn(-c3ccc(N4CCC[C@@H](F)C4)nc3)nc2CN1c1cccnc1 [Example 40]
 | 94 | 103 | 0.008 |  |  |  | Nc1ccc(N2Cc3nn(-c4ccc(N5CCCC5)nc4)cc3C2=O)cc1F [Example 50]
 | 71 | 88 | 0.019 |  |  |  | O=C1c2cn(-c3ccc(N4CC[C@H](F)C4)nc3)nc2CN1c1ccncc1 [Example 54]
 | 54 | 95 | 0.002 |  |  |  | O=C1c2cn(-c3ccc(N4CC[C@H](F)C4)nc3)nc2CN1c1ccc(F)cc1 [Example 64]
 | 44 | 84 | 0.042 |  |  |  | O=C1c2cn(-c3ccc(N4CC[C@@H](F)C4)nc3)nc2CN1c1cncc(F)c1 [Example 91]
 | 34 | 68 | 0.054 |  |  |  | Cc1c2c(nn1-c1ccc(N3CC[C@@H](F)C3)nc1)CN(c1ccccn1)C2=O [Example 95]
 | 75 | 91 | 0.04 |  |  |  | O=C1c2cn(-c3ccc(N4CCCC4)nc3)nc2CN1c1ccncc1F [Example 113]
 | 58 | 77 | 0.007 |  |  |  | O=C1c2cn(-c3ccc(N4CCCC4)nc3)nc2CN1c1cncc(F)n1 [Example 139]
 | 92 | 99 | 0.006 |  |  |  | O=C1c2cn(-c3ccc(N4CCOCC4)nc3)nc2CN1c1cnc(F)cn1 [Example 142]
 | 80 | 91 | 0.008 |  |  |  | Cl.O=C1c2cn(-c3ccc(N4CCCC4)nc3)nc2CN1c1cnc(F)cn1 [Example 143]
 | 77 | 91 | 0.04 |  |  |  | Cn1ccc(-n2cc3c(n2)CN(c2cncc(F)n2)C3=O)n1 [Example 148]
 | 72 | 96 | 0.055 |  |  |  | O=C1c2cn(-c3ccc(N4CC[C@@H](F)C4)nc3)nc2CN1c1cc(O)ccn1 [Example 166]
 | 73 | 96 | 0.045 |  |  |  | O=C1c2cn(-c3ccc(N4CC[C@H](F)C4)nc3)nc2CN1c1ncccc1O [Example 169]
